In patent US20230346803A1, “COMPOSITIONS OF BERBERINE URSODEOXYCHOLATE AND METHODS THEREOF FOR TREATING PRIMARY SCLEROSING CHOLANGITIS” (SHENZHEN HIGHTIDE BIOPHARMACEUTICAL LTD., priority 2021, published 2023):

Test system: adult subjects with PSC
Experiment: Phase 2, multicenter, dose-ranging, 18-week, placebo-controlled study of BUDCA in PSC
Assay type: in vivo, human
Details: for Share of subjects achieving a 25% reduction in ALP: 0 subjects on placebo; for Percent change from Baseline in GGT at Week 6: all subjects
Experimental: A Phase 2, multicenter, dose-ranging, 18-week study was conducted comparing two dose regimens of BUDCA (500 mg BID and 1,000 mg BID) to placebo in adult subjects with PSC.
BUDCA drug product (also herein referred to as HTD1801) is a film-coated tablet containing 250 mg of berberine ursodeoxycholate.
The clinical study design consisted of an initial randomized, double-blind, placebo-and dose-controlled, parallel-group period (Period 1), followed by a dose-controlled extension period (Period 2), which is followed by a placebo-controlled randomized withdrawal period (Period 3). • Period 1: Subjects were randomized to receive BID doses of 500 mg, 1,000 mg, or matching placebo for 6 weeks. The primary analysis was based on this initial 6-week randomized, double-blind, placebo- and dose-controlled, parallel-group period. • Period 2: Subjects previously randomized to 500 mg BID or 1,000 mg BID continued for 6 more weeks at that previous dose, while subjects previously randomized to placebo were re-randomized to receive 6 weeks of either 500 mg BID or 1,000 mg BID. • Period 3: Subjects were re-randomized to either continue on the active treatment they had received in Period 2 or be assigned to placebo.
Patients with a known diagnosis of PSC based upon magnetic resonance cholangiopancreatography (MRCP) or endoscopic retrograde cholangiopancreatography (ERCP) findings were eligible for inclusion in this study. To be eligible for randomization into the study, serum ALP levels at screening had to be elevated at least above 1.5 times the upper limit of normal (ULN).
The primary endpoint was the absolute change in ALP from Baseline to Week 6 (Period 1).
For this study, 88 subjects with PSC were screened, 59 were randomized, 55 received at least 1 dose of study drug (safety population), and 54 had at least 1 post-dose efficacy assessment (modified intent-to-treat (mITT) population).
All statistical tests were two-sided with an alpha level of 0.05. The statistical analyses were conducted with the SAS® System version 9.4 or higher. All analyses were subject to formal verification procedures.

[1] = Baseline ALP <3x ULN, 500 mg BID (n=8)
[2] = Baseline ALP <3x ULN, 1,000 mg BID (n=16)
[3] = Baseline ALP ≥3x ULN, 500 mg BID (n=7)
[4] = Baseline ALP ≥3x ULN, 1,000 mg BID (n=8)

## COc1ccc2cc3[n+](cc2c1OC)CCc1cc2c(cc1-3)OCO2.C[C@H](CCC(=O)[O-])[C@H]1CC[C@H]2[C@@H]3[C@@H](O)C[C@@H]4C[C@H](O)CC[C@]4(C)[C@H]3CC[C@]12C [BUDCA, berberine ursodeoxycholate]
500 mg BID, prior UDCA use, week 6
  Share of subjects achieving a 25% reduction in ALP: 33%
500 mg BID
  Percent change from Baseline in GGT at Week 6: -21%
500 mg BID, subjects without prior UDCA use
  Percent change in GGT at Week 6: -42%
1,000 mg BID
  Percent change from Baseline in GGT at Week 6: -40%
1,000 mg BID, subjects without prior UDCA use
  Percent change in GGT at Week 6: -67%
[1]
  Mean (SD) change from Baseline to Week 6 in ALP: -13 (118) U/L
  Mean (SD) change from Baseline to Week 6 in ALT: -63 (104) U/L
  Mean (SD) change from Baseline to Week 6 in AST: -18 (41) U/L
[2]
  Mean (SD) change from Baseline to Week 6 in ALP: -20 (106) U/L
  Mean (SD) change from Baseline to Week 6 in ALT: -30 (72) U/L
  Mean (SD) change from Baseline to Week 6 in AST: -14 (26) U/L
[3]
  Mean (SD) change from Baseline to Week 6 in ALP: -138 (134) U/L
  Mean (SD) change from Baseline to Week 6 in ALT: -48 (74) U/L
  Mean (SD) change from Baseline to Week 6 in AST: -37 (49) U/L
[4]
  Mean (SD) change from Baseline to Week 6 in ALP: -185 (143) U/L
  Mean (SD) change from Baseline to Week 6 in ALT: -80 (56) U/L
  Mean (SD) change from Baseline to Week 6 in AST: -37 (39) U/L
Period 1, both doses, compared to an increase in the placebo group
  Absolute change in ALP from Baseline to Week 6 (primary efficacy endpoint): clinically meaningful and statistically significant decrease in ALP
Period 3, pooled active-to-active groups, depending on the week examined
  Number of subjects achieving ALP <1.5 x ULN: 4-6
Subject 18-003, 1,000 mg BID, Week 18
  Reduction of GGT: ~ 10%
Subject 18-003, 1,000 mg BID, after Week 12 through Week 18, baseline 1.8-fold ULN, prior UDCA 15 mg/kg
  ALP relative to ULN: below 1.5 fold ULN
Subject 23-004, 1,000 mg BID, Week 18
  Reduction of GGT: ~50%
Subject 23-004, 1,000 mg BID, Week 18, baseline 2.6-fold ULN, prior UDCA 12 mg/kg
  ALP relative to ULN: below 1.6 fold ULN
Week 6
  Response rate with 1,000 mg BID compared with 500 mg BID, each efficacy endpoint: ~ 2 fold
Active treatment, subjects without prior UDCA use
  Share of subjects achieving a 25% reduction in ALP: Over half
All treatments throughout the study
  Mean total bilirubin, albumin, and platelets: remained stable and within normal range
Subjects with PSC, 500 mg BID and 1,000 mg BID, up to 18 weeks
  Safety and tolerability: safe and generally well tolerated
